Experimental findings from ChEMBL document CHEMBL5291721, “A preclinical secondary pharmacology resource illuminates target-adverse drug reaction associations of marketed drugs” (Nat Commun, 2023) are described below.

Targets include Mu-type opioid receptor (Homo sapiens, UniProt P35372); Adenosine receptor A2a (Homo sapiens, UniProt P29274); Cannabinoid receptor 1 (Homo sapiens, UniProt P21554).
The target of test [1] is Glutamate receptor ionotropic, NMDA 1 (Rattus norvegicus, UniProt P35439).
The target of test [2] is T1, Gastrin/cholecystokinin type B receptor (Homo sapiens, UniProt P32239).
T1 sequence (P32239 whole entry): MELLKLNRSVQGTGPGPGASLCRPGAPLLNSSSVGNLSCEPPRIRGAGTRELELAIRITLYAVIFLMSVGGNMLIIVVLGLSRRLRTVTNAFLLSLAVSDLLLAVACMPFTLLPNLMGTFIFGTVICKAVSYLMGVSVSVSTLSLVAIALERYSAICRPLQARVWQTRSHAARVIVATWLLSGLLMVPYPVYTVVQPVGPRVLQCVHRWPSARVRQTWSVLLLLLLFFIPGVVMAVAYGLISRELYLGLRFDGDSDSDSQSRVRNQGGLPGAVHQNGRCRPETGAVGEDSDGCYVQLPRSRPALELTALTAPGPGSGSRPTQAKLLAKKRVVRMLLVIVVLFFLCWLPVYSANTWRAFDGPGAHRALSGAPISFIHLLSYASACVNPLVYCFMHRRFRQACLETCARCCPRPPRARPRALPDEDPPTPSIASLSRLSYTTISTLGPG

Another test addresses T2, Thromboxane A2 receptor (Homo sapiens, UniProt P21731).
T2 sequence (P21731 whole entry): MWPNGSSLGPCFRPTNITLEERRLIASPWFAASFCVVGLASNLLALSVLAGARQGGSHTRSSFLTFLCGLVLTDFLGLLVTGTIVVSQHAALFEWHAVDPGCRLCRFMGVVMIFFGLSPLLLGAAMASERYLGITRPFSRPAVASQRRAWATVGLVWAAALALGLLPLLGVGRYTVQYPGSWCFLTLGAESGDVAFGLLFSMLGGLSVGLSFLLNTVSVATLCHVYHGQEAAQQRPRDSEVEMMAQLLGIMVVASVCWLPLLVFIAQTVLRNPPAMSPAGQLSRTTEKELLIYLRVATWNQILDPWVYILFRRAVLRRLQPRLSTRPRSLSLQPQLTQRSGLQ

The target in test [3] is Gamma-aminobutyric acid receptor subunit alpha-1 (Rattus norvegicus, UniProt P62813).
Chain of Gamma-aminobutyric acid receptor subunit alpha-1 (P62813 whole entry): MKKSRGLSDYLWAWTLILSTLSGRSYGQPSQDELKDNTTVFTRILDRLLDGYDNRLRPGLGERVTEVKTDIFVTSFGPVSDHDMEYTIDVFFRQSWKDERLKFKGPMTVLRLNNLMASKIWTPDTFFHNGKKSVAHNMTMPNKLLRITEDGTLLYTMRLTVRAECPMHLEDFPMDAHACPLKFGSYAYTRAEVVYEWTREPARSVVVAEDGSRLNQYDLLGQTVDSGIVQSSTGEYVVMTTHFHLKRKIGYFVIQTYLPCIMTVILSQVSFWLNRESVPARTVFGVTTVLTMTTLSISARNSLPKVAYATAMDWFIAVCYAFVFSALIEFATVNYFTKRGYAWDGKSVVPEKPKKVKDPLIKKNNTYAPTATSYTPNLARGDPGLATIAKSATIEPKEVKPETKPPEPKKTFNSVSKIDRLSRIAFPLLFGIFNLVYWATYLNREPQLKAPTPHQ
In the next test the target is Histamine H2 receptor (Homo sapiens, UniProt P25021). In kind it is functional, cell-based.
Chain of Histamine H2 receptor (P25021 whole entry): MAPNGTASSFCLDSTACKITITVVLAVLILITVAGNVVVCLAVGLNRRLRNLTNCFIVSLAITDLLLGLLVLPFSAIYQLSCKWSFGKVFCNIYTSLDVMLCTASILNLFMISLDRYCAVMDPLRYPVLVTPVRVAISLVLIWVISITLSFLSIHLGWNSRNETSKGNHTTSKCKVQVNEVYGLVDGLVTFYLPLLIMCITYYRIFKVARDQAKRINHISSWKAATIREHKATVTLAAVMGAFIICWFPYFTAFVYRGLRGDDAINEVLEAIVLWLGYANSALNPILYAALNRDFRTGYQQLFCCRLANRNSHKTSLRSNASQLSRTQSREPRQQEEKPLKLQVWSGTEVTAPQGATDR
Test [4] concerns the target T3, Alpha-2A adrenergic receptor (Homo sapiens, UniProt P08913).
T3 sequence (P08913 whole entry): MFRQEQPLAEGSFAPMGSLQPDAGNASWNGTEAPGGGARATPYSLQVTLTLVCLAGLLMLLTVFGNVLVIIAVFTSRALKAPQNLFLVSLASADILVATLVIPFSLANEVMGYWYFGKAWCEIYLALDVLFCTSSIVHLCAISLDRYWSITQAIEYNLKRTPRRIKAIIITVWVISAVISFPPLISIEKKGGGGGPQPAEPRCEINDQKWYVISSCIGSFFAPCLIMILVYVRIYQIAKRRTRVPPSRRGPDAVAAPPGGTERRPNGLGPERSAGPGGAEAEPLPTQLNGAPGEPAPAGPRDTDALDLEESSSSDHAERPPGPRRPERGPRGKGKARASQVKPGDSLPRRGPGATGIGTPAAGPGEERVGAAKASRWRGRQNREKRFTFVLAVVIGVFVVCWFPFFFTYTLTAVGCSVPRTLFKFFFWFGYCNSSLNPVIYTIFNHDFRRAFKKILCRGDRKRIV
The format is functional, cell-based.

Test [5] has as its target Kappa-type opioid receptor (Homo sapiens, UniProt P41145).
Test [6] addresses T4, Alpha-1A adrenergic receptor (Homo sapiens, UniProt P35348).
T4 sequence (P35348 whole entry): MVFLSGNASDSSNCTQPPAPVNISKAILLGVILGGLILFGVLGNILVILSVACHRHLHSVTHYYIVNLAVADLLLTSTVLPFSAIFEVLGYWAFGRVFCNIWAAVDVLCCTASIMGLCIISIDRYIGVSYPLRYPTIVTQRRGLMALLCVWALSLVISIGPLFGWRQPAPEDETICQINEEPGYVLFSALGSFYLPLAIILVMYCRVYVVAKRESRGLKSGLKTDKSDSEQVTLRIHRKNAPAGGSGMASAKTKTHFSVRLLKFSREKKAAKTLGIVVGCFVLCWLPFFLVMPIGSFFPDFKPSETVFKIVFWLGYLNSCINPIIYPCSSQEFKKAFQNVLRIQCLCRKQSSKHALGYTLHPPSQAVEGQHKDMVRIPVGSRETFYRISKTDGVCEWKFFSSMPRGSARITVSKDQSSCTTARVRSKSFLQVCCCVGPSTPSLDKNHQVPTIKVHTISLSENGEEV
The format is functional, cell-based.

SMILES strings stand for the structures. Bounds are passed on as bounds.
Also: assay procedure not described here.

Chain of Cannabinoid receptor 1 (P21554 whole entry): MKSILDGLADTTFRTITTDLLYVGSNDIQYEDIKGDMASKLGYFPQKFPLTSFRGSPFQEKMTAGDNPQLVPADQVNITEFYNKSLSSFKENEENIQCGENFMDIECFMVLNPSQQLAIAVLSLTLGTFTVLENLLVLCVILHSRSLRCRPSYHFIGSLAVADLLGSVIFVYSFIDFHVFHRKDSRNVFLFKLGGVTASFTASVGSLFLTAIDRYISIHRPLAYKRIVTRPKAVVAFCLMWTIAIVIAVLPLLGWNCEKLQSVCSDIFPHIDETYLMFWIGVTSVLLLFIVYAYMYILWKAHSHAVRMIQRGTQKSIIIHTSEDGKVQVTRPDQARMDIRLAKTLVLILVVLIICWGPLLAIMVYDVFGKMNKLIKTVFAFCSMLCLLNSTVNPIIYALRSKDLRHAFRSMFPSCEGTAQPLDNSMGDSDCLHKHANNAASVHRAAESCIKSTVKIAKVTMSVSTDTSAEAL
Chain of Mu-type opioid receptor (P35372 whole entry): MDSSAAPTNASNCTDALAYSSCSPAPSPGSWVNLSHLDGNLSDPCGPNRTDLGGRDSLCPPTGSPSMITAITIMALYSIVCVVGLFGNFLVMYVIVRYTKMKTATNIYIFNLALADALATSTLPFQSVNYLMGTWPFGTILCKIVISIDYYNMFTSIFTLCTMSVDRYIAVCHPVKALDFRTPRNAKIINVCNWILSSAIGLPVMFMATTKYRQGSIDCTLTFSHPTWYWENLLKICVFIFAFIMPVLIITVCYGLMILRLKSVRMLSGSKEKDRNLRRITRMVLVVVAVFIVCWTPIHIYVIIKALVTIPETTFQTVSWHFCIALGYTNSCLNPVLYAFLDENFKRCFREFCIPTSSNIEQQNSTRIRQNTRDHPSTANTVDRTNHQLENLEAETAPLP
Chain of Kappa-type opioid receptor (P41145 whole entry): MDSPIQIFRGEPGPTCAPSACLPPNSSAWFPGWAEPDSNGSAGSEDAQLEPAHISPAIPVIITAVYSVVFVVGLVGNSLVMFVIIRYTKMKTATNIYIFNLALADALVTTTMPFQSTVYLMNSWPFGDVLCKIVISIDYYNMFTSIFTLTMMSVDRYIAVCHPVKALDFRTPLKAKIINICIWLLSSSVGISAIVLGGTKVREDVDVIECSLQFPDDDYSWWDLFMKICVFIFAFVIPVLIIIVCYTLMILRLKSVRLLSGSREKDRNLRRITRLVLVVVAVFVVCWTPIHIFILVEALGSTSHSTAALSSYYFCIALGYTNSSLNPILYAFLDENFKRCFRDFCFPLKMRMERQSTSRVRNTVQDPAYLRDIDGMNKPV
Chain of Adenosine receptor A2a (P29274 whole entry): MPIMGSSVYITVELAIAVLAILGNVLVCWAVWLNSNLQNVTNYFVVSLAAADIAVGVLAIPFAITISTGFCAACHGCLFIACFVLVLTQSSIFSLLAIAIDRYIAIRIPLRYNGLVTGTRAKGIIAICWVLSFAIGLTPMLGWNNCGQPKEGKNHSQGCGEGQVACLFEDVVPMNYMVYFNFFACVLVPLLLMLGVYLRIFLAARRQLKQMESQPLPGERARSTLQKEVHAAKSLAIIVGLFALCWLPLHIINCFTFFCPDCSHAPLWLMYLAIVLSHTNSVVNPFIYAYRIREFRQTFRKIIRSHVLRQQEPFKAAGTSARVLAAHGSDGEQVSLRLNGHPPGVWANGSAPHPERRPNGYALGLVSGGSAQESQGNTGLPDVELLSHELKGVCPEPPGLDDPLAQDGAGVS

Take `C[C@@H](NCCCc1cccc(C(F)(F)F)c1)c1cccc2ccccc12`: the concentration at half-maximal activity (AC50) in [1] was > 30 µM; in [2], > 30 µM; at Mu-type opioid receptor it was 2.5 µM; at Thromboxane A2 receptor, > 30 µM; in [3] it was > 30 µM; on Histamine H2 receptor, > 30 µM. Moreover, the concentration at half-maximal activity (AC50) (in test [4]; at Adenosine receptor A2a; in test [5]) was > 30 µM in each case.

For the compound `COc1ccc(CC2c3cc(OC)c(OC)cc3CC[N+]2(C)CCC(=O)OCCCCCOC(=O)CC[N+]2(C)CCc3cc(OC)c(OC)cc3C2Cc2ccc(OC)c(OC)c2)cc1OC` (configuration not stated), the half-maximal activity concentration (AC50) (in [1]; in [2]; on Thromboxane A2 receptor; in test [3]; at Histamine H2 receptor; in [4]) was > 30 µM each time. The AC50 was > 30 µM at Adenosine receptor A2a, 22 µM in test [5] and > 30 µM at Cannabinoid receptor 1.

As for `CCN1CCN(Cc2ccc(Nc3ncc(F)c(-c4cc(F)c5nc(C)n(C(C)C)c5c4)n3)nc2)CC1` [ABEMACICLIB], the AC50 (at Mu-type opioid receptor; in [4]; at Adenosine receptor A2a) was > 30 µM throughout.

Take `C[C@@H](Oc1cc(-c2cnn(C3CCNCC3)c2)cnc1N)c1c(Cl)ccc(F)c1Cl` [CRIZOTINIB]: the AC50 in test [2] was > 30 µM; at Mu-type opioid receptor, > 30 µM; on Thromboxane A2 receptor, > 30 µM; in test [4], > 30 µM; on Adenosine receptor A2a, > 30 µM; at Cannabinoid receptor 1 it was > 10 µM.

`O=C1CN(/N=C/c2ccc(-c3ccc([N+](=O)[O-])cc3)o2)C(O)=N1` [DANTROLENE]: the AC50 in [1] is > 10 µM; on Mu-type opioid receptor it was > 30 µM; on Thromboxane A2 receptor it was > 10 µM; in test [3], > 10 µM; on Histamine H2 receptor, > 10 µM; in test [4] it was > 10 µM. Also, the concentration at half-maximal activity (AC50) on Adenosine receptor A2a is > 30 µM; in test [5], > 10 µM; at Cannabinoid receptor 1, > 10 µM.

For `CN(C)CC[C@@H](c1ccc(Cl)cc1)c1ccccn1` [DEXCHLORPHENIRAMINE], the AC50 (in test [1]; in [2]; at Thromboxane A2 receptor; in test [3]; at Histamine H2 receptor; in [4]) was > 30 µM each time. The AC50 at Adenosine receptor A2a was > 30 µM; in [5], 12 µM.

For `C[C@H]1O[C@@H](n2cc(F)c(=O)[nH]c2=O)[C@H](O)[C@@H]1O` [DOXIFLURIDINE], the AC50 in test [6] was > 30 µM.

On to `C[C@]12C=CC(=O)N[C@@H]1CC[C@@H]1[C@@H]2CC[C@]2(C)[C@@H](C(=O)Nc3cc(C(F)(F)F)ccc3C(F)(F)F)CC[C@@H]12` [DUTASTERIDE], for which the AC50 in test [1] was > 10 µM; at Mu-type opioid receptor it was > 30 µM; at Thromboxane A2 receptor, > 10 µM; in [3], > 10 µM; on Histamine H2 receptor, > 10 µM; in test [4], > 10 µM. In addition, the AC50 (on Adenosine receptor A2a; in test [5]; at Cannabinoid receptor 1) was > 10 µM each time.

As to `CN1C[C@H](C(=O)N[C@]2(C)O[C@@]3(O)[C@@H]4CCCN4C(=O)[C@H](Cc4ccccc4)N3C2=O)C=C2c3cccc4[nH]cc(c34)C[C@H]21` [ERGOTAMINE], the AC50 was > 30 µM at Mu-type opioid receptor, > 10 µM in [4] and > 30 µM on Adenosine receptor A2a.

Regarding `CN(C)CCC[C@@]1(c2ccc(F)cc2)OCc2cc(C#N)ccc21` [ESCITALOPRAM], the AC50 (in test [1]; in test [2]; on Thromboxane A2 receptor; in [4]; on Adenosine receptor A2a; in test [5]) was > 30 µM throughout.

Regarding `C[N+](C)(C)C[C@H](O)CC(=O)[O-]` [LEVOCARNITINE], in test [6], the AC50 is > 30 µM.

Turning to `C=C[C@H]1C[N@@]2CC[C@H]1C[C@@H]2[C@@H](O)c1ccnc2ccc(OC)cc12` [QUINIDINE], the AC50 in test [1] is > 10 µM; in [2], > 30 µM; at Mu-type opioid receptor, 6.2 µM; at Histamine H2 receptor it was > 10 µM; in [4], > 10 µM; at Adenosine receptor A2a it was > 30 µM. Moreover, the values for the AC50 (in test [5]; at Cannabinoid receptor 1) were 4 µM and > 10 µM, respectively.

For the compound `CC(N)C12CC3CC(CC(C3)C1)C2` (configuration not stated) [RIMANTADINE], the AC50 was > 10 µM in test [1]; > 30 µM on Mu-type opioid receptor; > 10 µM at Thromboxane A2 receptor; > 10 µM in [3]; > 10 µM at Histamine H2 receptor; > 10 µM in [4]. In addition, the AC50 (at Adenosine receptor A2a; in [5]; at Cannabinoid receptor 1) was > 10 µM in each case.

Turning to `CC(C)c1nc(N(C)S(C)(=O)=O)nc(-c2ccc(F)cc2)c1/C=C/[C@@H](O)C[C@@H](O)CC(=O)O` [ROSUVASTATIN], the AC50 (in test [1]; in test [2]; at Mu-type opioid receptor; in [3]; on Histamine H2 receptor; in test [4]) was > 30 µM in each case. Also, the AC50 (on Adenosine receptor A2a; in [5]) was > 30 µM each time.

As to `O=C1C(CC[S+]([O-])c2ccccc2)C(=O)N(c2ccccc2)N1c1ccccc1` (configuration not stated) [SULFINPYRAZONE], the AC50 is > 10 µM in test [1]; > 30 µM at Mu-type opioid receptor; > 10 µM at Thromboxane A2 receptor; > 10 µM in [3]; > 10 µM on Histamine H2 receptor; > 30 µM in test [4]. For the same compound, the AC50 (at Adenosine receptor A2a; in [5]; at Cannabinoid receptor 1) was > 10 µM each time.

As to `CCN(CC)CCNC(=O)c1c(C)[nH]c(/C=C2\C(=O)Nc3ccc(F)cc32)c1C` [SUNITINIB], the AC50 in [1] was > 30 µM; in [2], > 10 µM; on Mu-type opioid receptor, 4.9 µM; at Thromboxane A2 receptor, 9.1 µM; in [3] it was > 30 µM; at Histamine H2 receptor it was > 30 µM. Also, the AC50 was > 30 µM in test [4], 5.3 µM at Adenosine receptor A2a and 10.3 µM in test [5].

As for `CC(C)(C)NCC(O)c1cc(O)cc(O)c1` (configuration not stated) [TERBUTALINE], the concentration at half-maximal activity (AC50) (in [2]; on Thromboxane A2 receptor; on Adenosine receptor A2a) was > 30 µM each time.

Take `CC(S)C(=O)NCC(=O)O` (configuration not stated) [TIOPRONIN]: the AC50 (at Mu-type opioid receptor; in test [4]; at Adenosine receptor A2a) was > 30 µM each time.

In test [6], `CC1=C(/C=C/C(C)=C/C=C/C(C)=C/C(=O)O)C(C)(C)CCC1` [TRETINOIN] gave an AC50 of 20.3 µM.

Take `C[C@H](CCC(=O)O)[C@H]1CC[C@H]2[C@@H]3[C@@H](O)C[C@@H]4C[C@H](O)CC[C@]4(C)[C@H]3CC[C@]12C` [URSODIOL]: the AC50 (at Mu-type opioid receptor; in test [4]; on Adenosine receptor A2a) was > 30 µM in each case.

The term AC50 denotes the concentration at which the activity in the assay is half-maximal. High values mean activity only at high concentration, low ones activity at low concentration.
